The values below come from patent US10807993B2, “Dihydrochromene derivatives” (Sumitomo Dainippon Pharma Co., Ltd., priority 2018, dated 2020).

Data set [1] addresses T1, hERG (Homo sapiens (Human), UniProt Q12809).
Procedure: (§1) To a cultured CHO cell strain which stably expresses hERG was added each test compound to adjust the final concentration of DMSO to 0.0135 to 0.5%. The hERG current was measured with QPatch HT (Sophion Inc.), and the concentration at which 50% of the hERG current was inhibited by each test compound (IC50 value; μM) was calculated.
(§2) The compounds of Examples were tested according to Test 2. And, the hERG/HT-29 was calculated by dividing the compound concentration obtained in Test 2 (50% of the hERG current is inhibited) by the compound concentration obtained in Test 1 (50% of the proliferation of HT-29 cells is inhibited).
The subject of a further data set is HT-29 cells. The data set is described as follows: Inhibition test for sphere formation assay of cancer cells. Format: cell-based. Conditions: for IC50: sphere culture (ultra-low attachment, serum-free), 4 days, CellTiter-Glo, read-out: Sphere IC50 value (concentration for 50% inhibition of cell proliferation); for activity for inhibiting cell proliferation in the sphere culture condition: summary in words. The procedure: Reliable methods established for measuring the self-renewal ability of cells which is one of the CSC's properties include a method for measuring the sphere-forming ability of cancer cells in non-adherent condition in the absence of serum (Cancer Res 65, 5506-5511 (2005)). HT-29 cells were available from American Type Culture Collection (ATCC). HT-29 cells were cultured at 37° C. under 5% CO2 using the McCoy's 5a medium containing 10% fetal bovine serum (FBS) and 1% penicillin/streptomycin. HT-29 cells were seeded in a 384 Well Black Clear Bottom Ultra-Low Attachment Microplate (Corning Cat. No. 3827) in an amount of 350-800 cells/well using the DMEM/F12 medium containing 2% B27 supplement (GIBCO), 20 ng/mL epidermal growth factor (EGF) (peprotech), 10 ng/mL basic fibroblast growth factor (bFGF) (peprotech), 5 μg/mL insulin (Sigma), and 1% penicillin/streptomycin. Each test compound was added into each well to adjust the final concentration of DMSO to 0.1%, and the cells were cultured for 4 days. The number of viable cells in each well was then measured with CellTiter-Glo™ Luminescent Cell Viability Assay (Promega) to calculate the concentration of each test compound for 50% inhibition of cell proliferation (Sphere IC50 value; […])
The experiment of Test 1 was performed for each compound of each Example. The concentration of each test compound for 50% inhibition of cell proliferation (Sphere IC50 value; μmol/L) is shown in the following Table.
In general terms: In ATP-based viability assays light output follows the ATP content of the culture.

Data set [2] addresses T1, hERG. Kind of data set: Test for evaluating hERG inhibition (QPatch HT, CHO cell strain stably expressing hERG). The following applies: for hERG/HT-29: hERG IC50 (Test 2) divided by HT-29 sphere IC50 (Test 1); for deviation between the concentration of inhibiting 50% cell proliferation and the concentration of inhibiting 50% hERG current: summary in words of hERG/HT-29. A general note: Block of hERG is tested as a sign of cardiac risk.
Procedure: as §1, §2

Where [3] appears, read: read-out: Binding inhibition (IC50, μM), concentration at which 50% of the hERG current was inhibited, CHO cells stably expressing hERG, QPatch HT.

Where two headings read alike, the source gives them in different places. Bounds are passed on as bounds.

T1 sequence (Q12809 whole entry): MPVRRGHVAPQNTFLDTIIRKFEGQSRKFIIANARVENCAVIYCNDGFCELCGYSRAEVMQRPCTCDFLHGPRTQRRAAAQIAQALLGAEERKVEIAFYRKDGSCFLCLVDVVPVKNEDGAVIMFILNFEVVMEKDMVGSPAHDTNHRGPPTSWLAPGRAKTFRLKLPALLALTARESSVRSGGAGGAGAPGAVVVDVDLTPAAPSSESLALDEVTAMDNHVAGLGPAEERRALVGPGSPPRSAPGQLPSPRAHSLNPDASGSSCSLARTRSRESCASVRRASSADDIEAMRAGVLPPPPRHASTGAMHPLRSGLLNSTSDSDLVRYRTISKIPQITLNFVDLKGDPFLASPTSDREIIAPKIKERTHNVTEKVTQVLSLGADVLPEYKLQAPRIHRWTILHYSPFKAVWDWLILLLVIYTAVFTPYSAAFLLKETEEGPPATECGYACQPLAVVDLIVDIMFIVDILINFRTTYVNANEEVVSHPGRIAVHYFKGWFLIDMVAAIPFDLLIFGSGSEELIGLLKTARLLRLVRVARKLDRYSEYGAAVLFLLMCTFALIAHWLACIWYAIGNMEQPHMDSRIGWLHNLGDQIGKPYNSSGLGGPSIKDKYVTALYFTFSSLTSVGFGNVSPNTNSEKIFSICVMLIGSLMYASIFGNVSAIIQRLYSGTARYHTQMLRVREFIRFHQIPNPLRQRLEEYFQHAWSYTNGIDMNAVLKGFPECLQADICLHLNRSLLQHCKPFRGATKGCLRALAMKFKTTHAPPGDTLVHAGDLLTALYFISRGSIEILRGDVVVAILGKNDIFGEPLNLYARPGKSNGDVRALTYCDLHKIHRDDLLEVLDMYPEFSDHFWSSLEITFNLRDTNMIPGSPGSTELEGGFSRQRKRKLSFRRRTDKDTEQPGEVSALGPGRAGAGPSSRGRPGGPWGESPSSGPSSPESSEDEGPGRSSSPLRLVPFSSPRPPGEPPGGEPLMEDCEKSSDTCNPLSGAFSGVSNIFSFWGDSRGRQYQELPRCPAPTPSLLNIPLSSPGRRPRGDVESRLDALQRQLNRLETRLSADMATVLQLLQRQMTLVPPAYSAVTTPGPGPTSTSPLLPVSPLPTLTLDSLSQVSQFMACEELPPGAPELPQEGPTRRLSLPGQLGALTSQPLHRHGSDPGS

On hERG [1], `Cc1nccn1CC(=O)N1CCC2(CC1)COC1c3cc(Cl)ccc3OC(C)(C)C1C2` (single isomer, unassigned) [Example 3] returned an IC50 of 200 nM and a hERG/HT-29 of 2.50. Moreover, the IC50 in the data set on HT-29 cells amounted to 80 nM.
The matching figures for `CC1(C)Oc2ccc(Cl)cc2C2OCC3(CCN(C(=O)Cn4cnc(C(F)(F)F)c4)CC3)CC21` (stereo not shown) [Example 17]: 3000 nM, 0.36 and 8300 nM.
For the compound `CC1(C)Oc2ccc(Cl)cc2C2OCC3(CCN(CCn4cnc(CO)c4)CC3)CC21` (stereo not shown) [Example 55], at hERG [1], the IC50 stood at 1600 nM and the hERG/HT-29 turned out to be 26.7. Also, in the data set with HT-29 cells, the IC50 is 60 nM.
For `Cc1nc(CO)cn1CCN1CCC2(CC1)COC1c3ccc(Cl)cc3OC(C)(C)C1C2` (stereo not shown) [Example 57], at hERG [1], the IC50 turned out to be 1100 nM and the hERG/HT-29 is 15.7. In the data set with HT-29 cells, the IC50 was found to be 70 nM.
Turning to `Cc1nccn1CCN1CCC2(CC1)COC1c3cc(F)ccc3OC(C)(C)C1C2` (stereo not shown) [Example 43], on hERG [1], the IC50 came to 1000 nM and the hERG/HT-29 came out at 20. Also, the IC50 in the data set with HT-29 cells came to 50 nM.
Turning to `CC1(C)Oc2ccc(Cl)cc2C2OCC3(CCN(C(=O)Cn4ccnc4C#N)CC3)CC21` (stereo not shown) [Example 12], the IC50 against hERG [1] stood at 2900 nM; in the data set with HT-29 cells, 550 nM. On hERG [1], this compound yielded a hERG/HT-29 of 5.27.
As for `CC1(C)Oc2ccc(N=[N+]=[N-])cc2C2OCC3(CCN(C(=O)Cn4ccnc4C#N)CC3)CC21` (stereo not shown) [Example 11], the IC50 worked out at 4900 nM at hERG [1] and 4090 nM in the data set on HT-29 cells. The compound also yielded a hERG/HT-29 at hERG [1] of 1.20.
On to `Cc1nc[nH]c1CN1CCC2(CC1)COC1c3ccc(Cl)cc3OC(C)(C)C1C2` (racemic) [Example 18, Racemate of (4′aR,10′bR)-8′-chloro-5′,5′-dimethyl-1-[(4-methyl-1H-imidazol-5-yl)methyl]-4′a,10′b-dihydro-2′H,4′H,5′H-spiro[piperidine-4,3′-pyrano[3,2-c][1]benzopyran] and (4′aS,10′bS)-8′-chloro-5′,5′-dimethyl-1-[(4-methyl-1H-imidazol-5-yl)methyl]-4′a,10′b-dihydro-2′H,4′H,5′H-spiro[piperidine-4,3′-pyrano[3,2-c][1]benzopyran]], for which the IC50 in the data set on HT-29 cells (Homo sapiens, 96 h) was 20 nM. On hERG [2], this compound came in with an IC50 of 0.6 µM and a hERG/HT-29 of 30.
In the same order, the values of `Cc1nc[nH]c1CN1CCC2(CC1)COC1c3ccc(Cl)cc3OCC1C2` (racemic) [Example 64, Racemate of (4′aS,10′bR)-8′-chloro-1-[(4-methyl-1H-imidazol-5-yl)methyl]-4′a,10′b-dihydro-2′H,4′H,5′H-spiro[piperidine-4,3′-pyrano[3,2-c][1]benzopyran] and (4′aR,10′bS)-8′-chloro-1-[(4-methyl-H-imidazol-5-yl)methyl]-4′a,10′b-dihydro-2′H,4′H,5′H-spiro[piperidine-4,3′-pyrano[3,2-c][1]benzopyran]] are 70 nM, 0.4 µM and 5.71.
For the compound `CC1(C)Oc2cc(Cl)ccc2C2OCC3(CCN(CCn4ccnc4)CC3)CC21` (stereo not shown) [Example 41], in the data set with HT-29 cells, the IC50 is < 10 nM and the “activity for inhibiting cell proliferation in the sphere culture condition” value is reported as “potent activity”. On hERG [2], the hERG/HT-29 is reported as >70; the “deviation between the concentration of inhibiting 50% cell proliferation and the concentration of inhibiting 50% hERG current” value is on record as “good deviation”. Further, the IC50 at hERG [2] (setting [3]) stood at 0.7 µM.
On to `Cc1nc[nH]c1CN1CCC2(CC1)COC1c3cc(F)ccc3OC(C)(C)C1C2` (stereo not shown) [Example 23], for which the IC50 in the data set on HT-29 cells was found to be 60 nM; at hERG [2] (setting [3]) it was 1.4 µM. For the same compound, at hERG [2], the hERG/HT-29 is 23.3.
`Cc1nccn1CC(=O)N1CCC2(CC1)COC1c3cc(F)ccc3OC(C)(C)C1C2` (stereo not shown) [Example 2]: the IC50 with HT-29 cells is 240 nM; at hERG [2] (setting [3]) it was < 0.3 µM.
`Cc1nc[nH]c1CN1CCC2(CC1)COC1c3cc(Cl)ccc3OC(C)(C)C1C2` (stereo not shown) [Example 24]: the values for the IC50 in the data set on HT-29 cells and on hERG [2] (setting [3]) were 90 nM and 3.8 µM, respectively. Besides, the hERG/HT-29 at hERG [2] worked out at 42.2.
In the same order, the values of `Cc1nc[nH]c1CN1CCC2(CC1)COC1c3cc(Cl)ccc3OC(C)(C)C1C2` (stereo not shown) [Example 25] are 70 nM, 0.4 µM and 5.7.
Take `CC1(C)Oc2cc(Cl)ccc2C2OCC3(CCN(CCn4ccnc4CO)CC3)CC21` (stereo not shown) [Example 54]: in the data set with HT-29 cells, the IC50 is < 10 nM and the “activity for inhibiting cell proliferation in the sphere culture condition” value is “potent activity”. On hERG [2], the hERG/HT-29 is recorded as >140; the “deviation between the concentration of inhibiting 50% cell proliferation and the concentration of inhibiting 50% hERG current” value is on record as “good deviation”. The IC50 on hERG [2] (setting [3]) stood at 1.4 µM.
In the same order, the values of `Cc1nc[nH]c1CN1CCC2(CC1)COC1c3ccc(Cl)cc3OCC1C2` (single isomer, unassigned) [Example 64a] are < 10 nM, “potent activity”, >60, “good deviation” and 0.6 µM.
In the same order, the values of `Cc1nccn1CCN1CCC2(CC1)COC1c3cc(F)ccc3OC(C)(C)C1C2` (stereo not shown) [Example 44] are < 10 nM, “potent activity”, >360, “good deviation” and 3.6 µM.
On to `Cc1nccn1CC(=O)N1CCC2(CC1)COC1c3cc(Cl)ccc3OC(C)(C)C1C2` (single isomer, unassigned) [Example 4], for which the IC50 is 310 nM in the data set on HT-29 cells and < 0.3 µM on hERG [2] (setting [3]).
Take `Cn1cncc1CN1CCC2(CC1)COC1c3cc(F)ccc3OC(C)(C)C1C2` (stereo not shown) [Example 31]: the IC50 in the data set with HT-29 cells is 60 nM; on hERG [2] (setting [3]) it was 1.4 µM. This compound gave a hERG/HT-29 on hERG [2] of 23.3.
As to `Cn1cncc1CN1CCC2(CC1)COC1c3cccc(Cl)c3OC(C)(C)C1C2` (stereo not shown) [Example 34], in the data set with HT-29 cells, the IC50 was < 10 nM and the “activity for inhibiting cell proliferation in the sphere culture condition” value is reported as “potent activity”. In addition, at hERG [2], the hERG/HT-29 is listed as >140; the “deviation between the concentration of inhibiting 50% cell proliferation and the concentration of inhibiting 50% hERG current” value is given as “good deviation”. Besides, the IC50 on hERG [2] (setting [3]) worked out at 1.4 µM.
Consider `Cc1nc[nH]c1CN1CCC2(CC1)COC1c3cccc(Cl)c3OC(C)(C)C1C2` (stereo not shown) [Example 27], for which the IC50 in the data set with HT-29 cells amounted to 350 nM; on hERG [2] (setting [3]) it was 0.4 µM. At hERG [2], the hERG/HT-29 is reported as 1.14.
Turning to `Cc1c(CO)ncn1CCN1CCC2(CC1)COC1c3cc(Cl)ccc3OC(C)(C)C1C2` (stereo not shown) [Example 56], in the data set with HT-29 cells, the IC50 was < 10 nM and the “activity for inhibiting cell proliferation in the sphere culture condition” value was “potent activity”. On hERG [2], the hERG/HT-29 is given as >80; the “deviation between the concentration of inhibiting 50% cell proliferation and the concentration of inhibiting 50% hERG current” value is “good deviation”. In addition, on hERG [2] (setting [3]), the IC50 came to 0.8 µM.
As to `CC1(C)Oc2ccc(Cl)cc2C2OCC3(CCN(Cc4c[nH]cn4)CC3)CC21` (stereo not shown) [Example 29], the IC50 came out at 810 nM with HT-29 cells and 2.6 µM on hERG [2] (setting [3]). Also, the hERG/HT-29 at hERG [2] came out at 3.21.
In the same order, the values of `CC1(C)Oc2ccc(Cl)cc2C2OCC3(CCN(Cc4ncc[nH]4)CC3)CC21` (stereo not shown) [Example 35] are 210 nM, 3.5 µM and 16.7.
